From the NIST ThermoML archive (doi:10.1021/acs.jced.8b00537)

Experiment: xn = mol fraction of the nth substance listed
Conditions: 100 kPa, Liquid; for speed of sound: Frequency=3 MHz, Single path-length method; for mass density: Vibrating tube method; for viscosity: Capillary tube (Ostwald / Ubbelohde) method

CC[S+](CC)CC.O=S(=O)([N-]S(=O)(=O)C(F)(F)F)C(F)(F)F [triethylsulfonium bis((trifluoromethyl)sulfonyl)imide] + CCCO
Conditions	mass density [kg/m3]	speed of sound [m/s]	viscosity [mPa·s]
318.15 K, x1 = 0.04926	888	–	–
318.15 K, x1 = 0.1003	974	–	–
318.15 K, x1 = 0.1993	1097	–	–
318.15 K, x1 = 0.3008	1185	–	–
318.15 K, x1 = 0.3991	1249	–	–
318.15 K, x1 = 0.5023	1300	1164.2	–
318.15 K, x1 = 0.5987	1338	1171.9	–
318.15 K, x1 = 0.6987	1371	1179.6	–
318.15 K, x1 = 0.7947	1397	1185.8	–
318.15 K, x1 = 0.903	1422	1191.9	–
318.15 K, x1 = 1	1441	1203.1	–
323.15 K, x1 = 0.04926	884	1113.8	1.404
323.15 K, x1 = 0.1003	969	1109.1	1.833
323.15 K, x1 = 0.1993	1092	1117.1	2.651
323.15 K, x1 = 0.3008	1180	1129.2	–
323.15 K, x1 = 0.3991	1244	1141.1	4.67
323.15 K, x1 = 0.5023	1295	1152.9	5.379
323.15 K, x1 = 0.5987	1334	1160.8	6.831
323.15 K, x1 = 0.6987	1366	1168.8	8.347
323.15 K, x1 = 0.7947	1392	1175.2	10.12
323.15 K, x1 = 0.903	1417	1181.5	12.31
323.15 K, x1 = 1	1436	1193.7	14.31
328.15 K, x1 = 0.04926	879	1098.6	1.268
328.15 K, x1 = 0.1003	965	1095.1	1.648
328.15 K, x1 = 0.1993	1087	1104.3	2.38
328.15 K, x1 = 0.3008	1175	1117.2	3.13
328.15 K, x1 = 0.3991	1239	1129.5	4.187
328.15 K, x1 = 0.5023	1290	1141.6	4.822
328.15 K, x1 = 0.5987	1329	1149.9	6.099
328.15 K, x1 = 0.6987	1362	1158.1	7.438
328.15 K, x1 = 0.7947	1388	1164.7	8.976
328.15 K, x1 = 0.903	1412	1171.2	10.86
328.15 K, x1 = 1	1431	1184.7	12.5
333.15 K, x1 = 0.04926	875	1083.4	1.149
333.15 K, x1 = 0.1003	960	1081.1	1.489
333.15 K, x1 = 0.1993	1082	1091.5	2.148
333.15 K, x1 = 0.3008	1170	1105.2	2.825
333.15 K, x1 = 0.3991	1234	1118	3.775
333.15 K, x1 = 0.5023	1285	1130.5	4.346
333.15 K, x1 = 0.5987	1324	1139.1	5.483
333.15 K, x1 = 0.6987	1357	1147.5	6.667
333.15 K, x1 = 0.7947	1383	1154.3	8.024
333.15 K, x1 = 0.903	1407	1161	9.653
333.15 K, x1 = 1	1427	1175.9	10.99
338.15 K, x1 = 0.04926	870	1068.2	1.044
338.15 K, x1 = 0.1003	955	1067.1	1.352
338.15 K, x1 = 0.1993	1078	1078.7	1.95
338.15 K, x1 = 0.3008	1166	1093.3	2.563
338.15 K, x1 = 0.3991	1229	1106.6	3.422
338.15 K, x1 = 0.5023	1281	1119.3	3.941
338.15 K, x1 = 0.5987	1319	1128.3	4.956
338.15 K, x1 = 0.6987	1352	1137	6.007
338.15 K, x1 = 0.7947	1378	1144	7.206
338.15 K, x1 = 0.903	1403	1150.8	8.628
338.15 K, x1 = 1	1422	1166.8	9.726
343.15 K, x1 = 0.04926	866	1052.9	0.953
343.15 K, x1 = 0.1003	951	1053.3	1.232
343.15 K, x1 = 0.1993	1073	1066.2	1.778
343.15 K, x1 = 0.3008	1161	1081.5	2.339
343.15 K, x1 = 0.3991	1224	1095.4	3.123
343.15 K, x1 = 0.5023	1276	1108.3	3.594
343.15 K, x1 = 0.5987	1315	1117.8	4.507
343.15 K, x1 = 0.6987	1347	1126.8	5.444
343.15 K, x1 = 0.7947	1373	1134	6.506
343.15 K, x1 = 0.903	1398	1141	7.766
343.15 K, x1 = 1	1417	1157.6	8.659
